Experimental data as given in BindingDB's records for doi:10.1111/cbdd.12822 (Wuhan University of Technology, 2016).

Legend:
Acetylcholinesterase = Acetylcholinesterase (Electrophorus electricus, UniProt O42275); assay: AChE and BuChE Inhibition Assay; details: pH 8; 25 °C
Experimental: (§1) This spectrophotometric assay is based on the reaction of 5,5-dithio-bis(2-nitrobenzoic)acid (DTNB) with thiocholine to yield a colored product. Shimadzu (Kyoto, Japan) UV-1700 UV-vis spectrophotometer was used to record the measurements. The enzyme solutions were prepared at 2.5 units/mL concentrationin 1% gelatin solution. BChE/AChE and compound solutions (50 μL each) in 2% DMSO at 10^-1-10^-6 mM concentration were added to 3 mL phosphate buffer (pH 8 &plusnm; 0.1)followed by incubation for 5 min at 25 °C. The reaction was commenced by the addition of acetylthiocholine iodide (ATC) (10 μL) and DTNB (50 μL) to the enzyme-inhibitor mixture. […] The blank reading contained 10 μL substrate, 50 μL DTNB, 50 μL (2%) DMSO, and 3 mL buffer. The reaction was performed in triplicate.

[1] = target: Carboxylic ester hydrolase (Equus caballus, UniProt Q9N1N9); assay: AChE and BuChE Inhibition Assay; details: pH 8; 25 °C
Chain of Carboxylic ester hydrolase (Q9N1N9 whole entry): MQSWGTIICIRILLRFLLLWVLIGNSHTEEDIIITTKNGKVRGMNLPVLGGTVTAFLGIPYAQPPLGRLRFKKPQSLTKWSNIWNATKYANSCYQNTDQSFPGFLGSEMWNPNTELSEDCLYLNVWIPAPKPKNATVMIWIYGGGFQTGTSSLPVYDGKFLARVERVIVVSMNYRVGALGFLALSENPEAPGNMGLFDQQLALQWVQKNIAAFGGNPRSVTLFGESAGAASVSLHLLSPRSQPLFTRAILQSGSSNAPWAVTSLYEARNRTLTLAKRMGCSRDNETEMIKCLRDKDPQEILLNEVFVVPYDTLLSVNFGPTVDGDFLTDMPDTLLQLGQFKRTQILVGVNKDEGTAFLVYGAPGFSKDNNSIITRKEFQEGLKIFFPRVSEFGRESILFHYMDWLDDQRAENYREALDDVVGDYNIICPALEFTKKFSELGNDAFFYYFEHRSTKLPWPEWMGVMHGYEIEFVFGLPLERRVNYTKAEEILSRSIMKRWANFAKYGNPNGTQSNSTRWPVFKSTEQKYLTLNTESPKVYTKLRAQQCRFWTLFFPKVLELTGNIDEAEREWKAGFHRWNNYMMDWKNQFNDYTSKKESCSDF
Experimental: as §1

[2] = target: T1, Amine oxidase [flavin-containing] A (Rattus norvegicus, UniProt P21396); assay: Monoamine Oxidase Assay; details: pH 7.4; 38 °C
T1 sequence (P21396 whole entry): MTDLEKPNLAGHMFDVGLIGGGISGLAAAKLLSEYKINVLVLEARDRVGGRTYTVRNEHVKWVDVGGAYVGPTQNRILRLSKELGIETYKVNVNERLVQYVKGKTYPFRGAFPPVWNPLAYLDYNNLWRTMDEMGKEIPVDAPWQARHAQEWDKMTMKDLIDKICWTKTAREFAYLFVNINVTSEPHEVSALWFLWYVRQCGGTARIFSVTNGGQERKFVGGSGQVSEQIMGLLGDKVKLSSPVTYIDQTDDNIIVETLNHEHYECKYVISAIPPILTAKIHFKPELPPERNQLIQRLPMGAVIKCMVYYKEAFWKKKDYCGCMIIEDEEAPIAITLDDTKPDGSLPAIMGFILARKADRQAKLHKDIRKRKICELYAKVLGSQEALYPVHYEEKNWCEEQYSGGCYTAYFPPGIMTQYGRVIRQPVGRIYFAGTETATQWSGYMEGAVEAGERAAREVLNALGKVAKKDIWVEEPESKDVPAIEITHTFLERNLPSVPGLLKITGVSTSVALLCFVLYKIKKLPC

[3] = target: T2, Amine oxidase [flavin-containing] B (Rattus norvegicus, UniProt P19643); assay: Monoamine Oxidase Assay; details: pH 7.4; 38 °C
T2 sequence (P19643 whole entry): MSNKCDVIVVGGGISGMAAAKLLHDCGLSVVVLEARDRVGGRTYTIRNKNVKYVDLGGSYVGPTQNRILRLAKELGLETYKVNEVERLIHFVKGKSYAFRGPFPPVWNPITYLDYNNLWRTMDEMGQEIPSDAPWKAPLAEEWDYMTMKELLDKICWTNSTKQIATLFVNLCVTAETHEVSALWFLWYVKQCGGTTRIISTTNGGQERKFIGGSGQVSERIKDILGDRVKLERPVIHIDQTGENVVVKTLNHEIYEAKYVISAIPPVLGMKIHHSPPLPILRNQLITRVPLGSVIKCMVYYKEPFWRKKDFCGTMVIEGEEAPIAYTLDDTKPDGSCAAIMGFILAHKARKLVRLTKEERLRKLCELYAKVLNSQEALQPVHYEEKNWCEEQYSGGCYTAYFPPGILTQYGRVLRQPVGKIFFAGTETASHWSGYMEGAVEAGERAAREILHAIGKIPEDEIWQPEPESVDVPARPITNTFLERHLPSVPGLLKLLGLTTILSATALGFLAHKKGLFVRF

Chain of Acetylcholinesterase (O42275 whole entry): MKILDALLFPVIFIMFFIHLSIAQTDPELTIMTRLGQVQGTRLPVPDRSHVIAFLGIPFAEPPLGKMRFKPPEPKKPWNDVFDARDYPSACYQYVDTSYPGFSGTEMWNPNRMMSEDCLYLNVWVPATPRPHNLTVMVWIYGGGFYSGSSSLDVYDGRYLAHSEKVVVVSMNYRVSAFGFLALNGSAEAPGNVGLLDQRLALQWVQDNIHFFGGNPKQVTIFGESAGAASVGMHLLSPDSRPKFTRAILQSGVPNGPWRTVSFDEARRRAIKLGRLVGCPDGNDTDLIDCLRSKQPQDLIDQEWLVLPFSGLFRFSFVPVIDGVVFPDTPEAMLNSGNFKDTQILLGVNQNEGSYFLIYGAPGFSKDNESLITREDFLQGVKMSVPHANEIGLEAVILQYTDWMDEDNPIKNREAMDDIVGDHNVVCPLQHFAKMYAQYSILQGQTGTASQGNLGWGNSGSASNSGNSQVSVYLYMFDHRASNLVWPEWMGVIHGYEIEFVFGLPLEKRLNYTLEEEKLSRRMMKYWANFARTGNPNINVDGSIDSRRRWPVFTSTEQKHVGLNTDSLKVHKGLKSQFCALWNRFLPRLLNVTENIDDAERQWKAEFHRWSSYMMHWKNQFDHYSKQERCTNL

Compound | IC50 (Acetylcholinesterase) [µM] | IC50 [1] [µM] | IC50 [2] [µM] | IC50 [3] [µM]
COc1cc(/C=C2\CC(C)c3ccccc3C2=O)c(Br)c(OC)c1OC (stereo not given) [2-(2-Bromo-3,4,5-trimethoxy-benzylidene)-4-methyl-tetralone (3f)] | 0.045 | 12.5 | 0.92 | 0.88
COc1ccc(OC)c2c1CC/C(=C\c1cc(OC)c(OC)c(OC)c1Br)C2=O [2-(2-Bromo-3,4,5-trimethoxy-benzylidene)-5,8-dimethoxy-tetralone (3x)] | 0.27 | 9.8 | > 100 | > 100
COc1ccc2c(c1)CC/C(=C\c1cc(OC)c(OC)c(OC)c1Br)C2=O [2-(2-Bromo-3,4,5-trimethoxy-benzylidene)-6-methoxy-tetralone (3o)] | 1.2 | 17.5 | 32.2 | 12.4
COc1cc(/C=C2\CCc3ccc([N+](=O)[O-])cc3C2=O)c(Br)c(OC)c1OC [2-(2-Bromo-3,4,5-trimethoxy-benzylidene)-7-nitro-tetralone (3ag)] | 0.57 | 6.2 | 0.99 | 0.91
COc1ccc(/C=C2\CCc3ccc([N+](=O)[O-])cc3C2=O)c(Cl)c1OC [2-(2-Chloro-3,4-dimethoxy-benzylidene)-7-nitro-tetralone (3af)] | 2.92 | 17.5 | 1.24 | 2.9
COc1cc(/C=C2\CCc3ccccc3C2=O)c(Br)c(OC)c1OC [(2E)-2-[(2-bromo-3,4,5-trimethoxyphenyl)methylidene]-1,2,3,4-tetrahydronaphthalen-1-one (3c)] | 12.4 | > 100 | 27.3 | 5.6
COc1cc(/C=C2\CCc3c(O)cccc3C2=O)c(Br)c(OC)c1OC [(2E)-2-[(2-bromo-3,4,5-trimethoxyphenyl)methylidene]-5-hydroxy-1,2,3,4-tetrahydronaphthalen-1-one (3i)] | > 100 | 76.9 | > 100 | 37.2
COc1cccc2c1CC/C(=C\c1cc(OC)c(OC)c(OC)c1Br)C2=O [(2E)-2-[(2-bromo-3,4,5-trimethoxyphenyl)methylidene]-5-methoxy-1,2,3,4-tetrahydronaphthalen-1-one (3r)] | 67.2 | 92.5 | > 100 | 56
COc1cc2c(cc1OC)C(=O)/C(=C/c1cc(OC)c(OC)c(OC)c1Br)CC2 [(2E)-2-[(2-bromo-3,4,5-trimethoxyphenyl)methylidene]-6,7-dimethoxy-1,2,3,4-tetrahydronaphthalen-1-one (3u)] | 4.5 | > 100 | > 100 | 2.9
COc1cc(/C=C2\CCc3ccc(Cl)cc3C2=O)c(Br)c(OC)c1OC [(2E)-2-[(2-bromo-3,4,5-trimethoxyphenyl)methylidene]-7-chloro-1,2,3,4-tetrahydronaphthalen-1-one (3l)] | > 100 | 48.9 | > 100 | > 100
COc1cc(/C=C2\CCc3ccc(F)cc3C2=O)c(Br)c(OC)c1OC [(2E)-2-[(2-bromo-3,4,5-trimethoxyphenyl)methylidene]-7-fluoro-1,2,3,4-tetrahydronaphthalen-1-one (3ad)] | > 100 | 89.4 | 10.9 | 1.2
COc1ccc(/C=C2\CC(C)c3ccccc3C2=O)c(Cl)c1OC (stereo not given) [(2E)-2-[(2-chloro-3,4-dimethoxyphenyl)methylidene]-4-methyl-1,2,3,4-tetrahydronaphthalen-1-one (3e)] | 0.12 | 27.2 | 8.9 | 1.9
COc1ccc(OC)c2c1CC/C(=C\c1ccc(OC)c(OC)c1Cl)C2=O [(2E)-2-[(2-chloro-3,4-dimethoxyphenyl)methylidene]-5,8-dimethoxy-1,2,3,4-tetrahydronaphthalen-1-one (3w)] | 2.4 | 24.7 | > 100 | > 100
COc1ccc(/C=C2\CCc3c(O)cccc3C2=O)c(Cl)c1OC [(2E)-2-[(2-chloro-3,4-dimethoxyphenyl)methylidene]-5-hydroxy-1,2,3,4-tetrahydronaphthalen-1-one (3h)] | > 100 | > 100 | > 100 | 48.9
COc1cccc2c1CC/C(=C\c1ccc(OC)c(OC)c1Cl)C2=O [(2E)-2-[(2-chloro-3,4-dimethoxyphenyl)methylidene]-5-methoxy-1,2,3,4-tetrahydronaphthalen-1-one (3q)] | 81.2 | > 100 | > 100 | 63.7
COc1cc2c(cc1OC)C(=O)/C(=C/c1ccc(OC)c(OC)c1Cl)CC2 [(2E)-2-[(2-chloro-3,4-dimethoxyphenyl)methylidene]-6,7-dimethoxy-1,2,3,4-tetrahydronaphthalen-1-one (3t)] | 27.2 | > 100 | > 100 | 5.4
COc1ccc2c(c1)CC/C(=C\c1ccc(OC)c(OC)c1Cl)C2=O [(2E)-2-[(2-chloro-3,4-dimethoxyphenyl)methylidene]-6-methoxy-1,2,3,4-tetrahydronaphthalen-1-one (3n)] | 14.6 | 22.9 | 47.2 | 19.2
COc1ccc(/C=C2\CCc3ccc(F)cc3C2=O)c(Cl)c1OC [(2E)-2-[(2-chloro-3,4-dimethoxyphenyl)methylidene]-7-fluoro-1,2,3,4-tetrahydronaphthalen-1-one (3ac)] | > 100 | > 100 | 17.2 | 2.9
COc1cccc(/C=C2\CC(C)c3ccccc3C2=O)c1Cl (stereo not given) [(2E)-2-[(2-chloro-3-methoxyphenyl)methylidene]-4-methyl-1,2,3,4-tetrahydronaphthalen-1-one (3d)] | 1.9 | 49.9 | 10.2 | 3.2
COc1cccc(/C=C2\CCc3c(OC)ccc(OC)c3C2=O)c1Cl [(2E)-2-[(2-chloro-3-methoxyphenyl)methylidene]-5,8-dimethoxy-1,2,3,4-tetrahydronaphthalen-1-one (3v)] | 13.2 | > 100 | > 100 | > 100
COc1cccc(/C=C2\CCc3c(O)cccc3C2=O)c1Cl [(2E)-2-[(2-chloro-3-methoxyphenyl)methylidene]-5-hydroxy-1,2,3,4-tetrahydronaphthalen-1-one (3g)] | > 100 | > 100 | > 100 | 56.4
COc1cccc(/C=C2\CCc3c(OC)cccc3C2=O)c1Cl [(2E)-2-[(2-chloro-3-methoxyphenyl)methylidene]-5-methoxy-1,2,3,4-tetrahydronaphthalen-1-one (3p)] | 89.5 | > 100 | > 100 | 78.9
COc1cc2c(cc1OC)C(=O)/C(=C/c1cccc(OC)c1Cl)CC2 [(2E)-2-[(2-chloro-3-methoxyphenyl)methylidene]-6,7-dimethoxy-1,2,3,4-tetrahydronaphthalen-1-one (3s)] | 29.5 | > 100 | > 100 | 7.2
COc1ccc2c(c1)CC/C(=C\c1cccc(OC)c1Cl)C2=O [(2E)-2-[(2-chloro-3-methoxyphenyl)methylidene]-6-methoxy-1,2,3,4-tetrahydronaphthalen-1-one (3m)] | 43.9 | > 100 | > 100 | > 100
COc1cccc(/C=C2\CCc3ccc(F)cc3C2=O)c1Cl [(2E)-2-[(2-chloro-3-methoxyphenyl)methylidene]-7-fluoro-1,2,3,4-tetrahydronaphthalen-1-one (3ab)] | > 100 | > 100 | 19.6 | 6.9
